One assay addresses T1, Tyk2 JH2 Pseudokinase (Homo sapiens, UniProt P29597).
T1 construct: purchased Eurofins DiscoverX Corporation (CRO); host or cells: E. coli BL21-derived (T7 phage) or HEK-293
Description: KdELECT Competition Binding Assay. Conditions: 11-point 3-fold dilution series, qPCR readout. How it is done: The KdELECT Competition Binding Assay is performed by a CRO, Eurofins DiscoverX Corporation following the established standard protocol (DiscoverX, San Diego, Calif.). Briefly, Kinase-tagged T7 phage strains were prepared in an E. coli host derived from the BL21 strain. E. coli were grown to log-phase and infected with T7 phage and incubated with shaking at 32° C. until lysis. The lysates were centrifuged and filtered to remove cell debris. The remaining kinases were produced in HEK-293 cells and subsequently tagged with DNA for qPCR detection. Streptavidin-coated magnetic beads were treated with biotinylated small molecule ligands for 30 minutes at room temperature to generate affinity resins for kinase assays. The liganded beads were blocked with excess biotin and washed with blocking buffer (SeaBlock (Pierce), 1% BSA, 0.05% Tween 20, 1 mM DTT) to remove unbound ligand and to reduce nonspecific binding. Binding reactions were assembled by combining kinases, liganded affinity beads, and test compounds in 1× binding buffer (20% SeaBlock, 0.17×PBS, 0.05% Tween 20, 6 mM DTT). Test compounds were prepared as 111-fold stocks in 100% DMSO. Kds were determined using an 11-point 3-fold compound dilution series with three DMSO control points. All compounds for Kd measurements are distributed by acoustic transfer (non-contact dispensing) in 100% DMSO. The compounds were then diluted directly into the assays such that the final concentration of DMSO was 0.9%. All reactions performed in polypropylene 384-well plate. Each was a final volume of 0.02 mL. The assay plates were incubated at room temperature with shaking for 1 hour and the affinity beads were washed with wash buffer (1×PBS, 0.05% Tween 20). The beads were then re-suspended in elution buffer (1×PBS, 0.05% Tween 20, 0.5 μM non-biotinylated affinity ligand) and incubated at room temperature with shaking for 30 minutes. The kinase concentration in the eluates was measured by quantitative PCR.
Compound Handling: An 11-point 3-fold serial dilution of each test compound was prepared in 100% DMSO at 100-fold final test concentration and subsequently diluted to 1-fold in the assay (final DMSO concentration=1%). Most Kds were determined using a compound top concentration=30,000 nM. If the initial Kd determined was <0.5 nM (the lowest concentration tested), the measurement was repeated with a serial dilution starting at a lower top concentration.

Assay [1] has as its system Tyk2-mediated, IFNα-induced STAT1 phosphorylation in human Kit225 T cell line. The assay can be described thus: IFNα_Kit225 T Cell Assay (phosphorylated-STAT1, AlphaLISA). Conditions: Kit225 cells, compound 1 hour, human recombinant IFNα 20 minutes, pSTAT1; read-out: IFN-α Kit225 (IC50). The format is cell-based. How it is done: Kit225 cells were seeded in 384-well plate at a density of 0.5×10^5 cells/well in 4 μL HBSS, and incubated for 2 hours in a humidified, 5% CO2 cell culture incubator at 37° C. The cells were treated with serial diluted compounds for 1 hour and stimulated with human recombinant IFNα (Biolegend) for 20 minutes. The treated cells were then lysed and cellular phosphorylated-STAT1 levels were measured by AlphaLISA (PerkinElmer) according to the manufacturer's instructions. Inhibition data were calculated by comparison to vehicle control wells for 0% inhibition and non-stimulated control wells for 100% inhibition. Dose response curves were then generated to determine the concentration required to suppress 50% of cellular response (IC50) as derived by non-linear regression analysis using GraphPad Prism.

Assay [2] relates to Tyk2-mediated, IL23-induced STAT3 phosphorylation in human Kit225 T cell line. Description: IL-23_Kit225 T Cell Assay (phosphorylated-STAT3, AlphaLISA). The format is cell-based. Conditions: Kit225 cells, compound 1 hour, human recombinant IL-23 20 minutes, pSTAT3. As to the method: Kit225 cells (licensed from Professor Toshiyuki Hori, Ritsumeikan University, Japan) were seeded in 384-well plate at a density of 1×10^5 cells/well in 4 μL Hank's Balanced Salt Solution (HBSS, Gibco), and incubated for 2 hours in a humidified, 5% CO2 cell culture incubator at 37° C. The cells were treated with serial diluted compounds for 1 hour and stimulated with human recombinant IL-23 (R&D Systems) for 20 minutes. The treated cells were then lysed and cellular phosphorylated-STAT3 levels were measured by AlphaLISA (PerkinElmer) according to the manufacture's instructions. Inhibition data were calculated by comparison to vehicle control wells for 0% inhibition and non-stimulated control wells for 100% inhibition. Dose response curves were then generated to determine the concentration required to suppress 50% of cellular response (IC50) as derived by non-linear regression analysis using GraphPad Prism.

Assay [3] relates to IL-12/IL-23 and Type I IFN pathways. Conditions: Tokarski et al. 2015; cited from earlier work.
For assay [4], the system named is experimental autoimmune disease models (psoriasis, SLE, and IBD). Conditions: cited from earlier work.

T1 sequence (P29597 589-875 limits assumed): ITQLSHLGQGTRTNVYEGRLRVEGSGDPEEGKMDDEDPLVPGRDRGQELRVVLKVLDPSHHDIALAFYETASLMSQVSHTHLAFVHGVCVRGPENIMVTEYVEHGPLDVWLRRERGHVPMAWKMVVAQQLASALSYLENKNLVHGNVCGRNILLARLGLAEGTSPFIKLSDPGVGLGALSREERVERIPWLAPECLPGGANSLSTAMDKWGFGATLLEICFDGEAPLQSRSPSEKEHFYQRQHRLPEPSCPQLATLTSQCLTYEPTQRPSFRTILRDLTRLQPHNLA

`[2H]C([2H])([2H])NC(=O)c1nnc(NC(=O)C2CC2)cc1Nc1cc(N2CC(OC)C2)cc(-c2ncn(C)n2)c1OC` [Example A1, 6-(cyclopropanecarboxamido)-4-((2-methoxy-5-(3-methoxyazetidin-1-yl)-3-(1-methyl-1H-1,2,4-triazol-3-yl)phenyl)amino)-N-(methyl-d3)pyridazine-3-carboxamide] registered a Kd on Tyk2 JH2 Pseudokinase of 0.0035 nM. Moreover, the values for the IC50 in assay [1] and in assay [2] were 43 nM and 57 nM, respectively.

On to `[2H]C([2H])([2H])NC(=O)c1nnc(NC(=O)C2CC2)cc1Nc1cc(OC2COC2)cc(-c2ncn(C)n2)c1OC` [Example A4, 6-(cyclopropanecarboxamido)-4-((2-methoxy-3-(1-methyl-1H-1,2,4-triazol-3-yl)-5-(oxetan-3-yloxy)phenyl)amino)-N-(methyl-d3)pyridazine-3-carboxamide], for which, at Tyk2 JH2 Pseudokinase, the Kd amounted to 0.037 nM. Moreover, the IC50 in assay [1] is 410 nM; in assay [2], 130 nM.

With `[2H]C([2H])([2H])NC(=O)c1nnc(NC(=O)C2CC2)cc1Nc1cc(N2CCC2=O)cc(-c2ncn(C)n2)c1OC` [Example A3, 6-(cyclopropanecarboxamido)-4-((2-methoxy-3-(1-methyl-1H-1,2,4-triazol-3-yl)-5-(2-oxoazetidin-1-yl)phenyl)amino)-N-(methyl-d3)pyridazine-3-carboxamide], the Kd at Tyk2 JH2 Pseudokinase was found to be 0.0071 nM. Also, the results for the IC50 in assay [1] and in assay [2] were 7.5 nM and 9.7 nM, respectively.

At Tyk2 JH2 Pseudokinase, `CNC(=O)c1nnc(NC(=O)C2CC2)cc1Nc1cc(N2CC(OC)C2)cc(-c2ncn(C)n2)c1OC` [Example A2, 6-(cyclopropanecarboxamido)-4-((2-methoxy-5-(3-methoxyazetidin-1-yl)-3-(1-methyl-1H-1,2,4-triazol-3-yl)phenyl)amino)-N-methylpyridazine-3-carboxamide] registered a Kd of 0.004 nM. Besides, the IC50 was 50 nM in assay [1] and 88 nM in assay [2].

For BMS986165, the “block of IL-12/IL-23 and Type I IFN pathways” value in assay [3] was “effectively block”. In addition, in assay [4], the “in vivo efficacy in experimental autoimmune disease models” value is on record as “substantial in vivo efficacy”.

Values taken from patent US20220009910A1, “TYROSINE KINASE 2 INHIBITORS, PREPARATION METHODS AND MEDICINAL USES THEREOF” (Eternity Bioscience Inc., priority 2020, published 2022).
